Data taken from publication PMC2974656, “Selective killing of human immunodeficiency virus infected cells by non-nucleoside reverse transcriptase inhibitor-induced activation of HIV protease” (Retrovirology, 2010).

How the values were obtained:
HIV-1IIIB = experiment: Direct antiviral activity: MT4-LTR-EGFP cells infected with HIV-1IIIB, EGFP fluorescence; format: cell-based; details: MT4-LTR-EGFP cells, HIV-1IIIB MOI 0.01, 3 days; mean ± SD of three or more measurements; read-out: Inhibition of HIV replication in vitro EC50
Description: After 3 days of incubation, infected cells were quantified by determination of total EGFP fluorescence per well based on microscopy and subsequent image analysis. Threshold values were determined from the average pixel value plus 6 standard deviations from the uninfected control wells, and the median threshold from all control wells on a plate was defined as baseline GFP expression. Intensity values for the sample wells were then determined by subtracting the background threshold from each pixel value obtained from the image of the respective well and calculating the sum of net pixel intensities. Percent inhibition was calculated as 100 * (1 - (Sample - CC)/(VC - CC)).

[1] = test system: intracellular Gag processing by HIV PR; format: cell-based, HIV-1; details: 293T cells, 44 h post transfection
Description: In previous studies, high concentrations of NNRTI (5 μM) were required to observe NNRTI mediated activation of intracellular HIV PR activity. […]. Towards this end, we developed a biochemical assay for gel independent quantitation of intracellular Gag processing by HIV PR in the context of a virus producing cell. We had previously shown that additional protein domains, consisting of small epitope tags or even the 27 kDa green fluorescent protein (EGFP), can be inserted between the MA and CA domains of the Gag and Gag-Pol polyproteins without affecting polyprotein production or processing by HIV PR [36]. Based on this, we designed a HIV reporter construct which contained a small N-terminal fragment ('alpha peptide') of Escherichia coli beta-galactosidase (β-Gal), flanked by two HIV PR recognition sites, between the MA and CA coding sequences of Gag (Figure 1A). […] This so called alpha complementation principle can be exploited for use in mammalian cells and has been employed for the establishment of various cell based biochemical assay systems. We reasoned that embedding of the small alpha peptide within the multi-domain polyproteins Gag or Gag-Pol, respectively, should impair its productive association with the omega subunit, while proteolytic release of the alpha peptide from the polyprotein by PR would allow the formation of enzymatically active β-Gal. This should allow us to monitor intracellular Gag and Gag-Pol processing through increased β-Gal activity.
Reconstituted β-Gal activity in cell lysates was measured by cleavage of the chromogenic substrate CPRG [42] as described in Methods.
The activity of β-Gal in cell lysates from transfected 293T cells was measured by enzymatic cleavage of the chromogenic β-Gal substrate chlorphenolred-β-D-galactopyranoside (CPRG, Roche; [42]). At 44 h post transfection, cells were briefly rinsed with PBS and suspended in reporter gene assay lysis buffer (Roche, 600 μl per 6-well dish) supplemented with a protease inhibitor mix (Roche). Cell suspensions were incubated for 10 min at room temperature and cell debris was subsequently removed by brief centrifugation. Five μl of supernatant were diluted in 96-well plates with 95 μl CPRG reaction buffer (50 mM potassium phosphate, pH 7.5, 1 mM MgCl2) and pre-warmed for 5 min to 37°C. 100 μl of pre-warmed reaction mix (100 μM CPRG in CPRG reaction buffer supplemented with protease inhibitor cocktail and 40 μM β-mercaptoethanol) were added and β-Gal mediated cleavage of CPRG was monitored by recording absorption at 592 nm every 2 min for 20 min at 37°C using a TECAN Safire multi-well reader. OD592 values were plotted over time and relative reaction rates (OD592/min) were determined from the initial linear velocities.

[2] = test system: MT4-CMV-EGFP control cells; experiment: Cytotoxicity on uninfected control cells, EGFP fluorescence per well; format: cell-based
Description: (§1) The cytotoxicity of inhibitors was determined in parallel on MT4-CMV-EGFP control cells and on MT4-LTR-EGFP-IIIB virus producing cells, respectively.

[3] = test system: MT4-LTR-EGFP-IIIB HIV-1 producing cells; experiment: in vitro; format: cell-based
Description: as §1

MT4-LTR-EGFP-IIIB cells = format: cell-based; details: 1 μM, 6 days, trypan blue
Description: In MT4-LTR-EGFP-IIIB cells, HIV expression could additionally be detected through long terminal repeat (LTR) driven expression of the gfp marker gene. As a control we used uninfected MT-4 cells or MT4-CMV-EGFP cells, constitutively expressing EGFP from a CMV promoter, respectively.
Cell lysates were harvested and analyzed by immunoblot using antiserum raised against HIV-1 CA. Positions of Gag and Gag-Pol processing products are marked at the right, molecular mass standards are indicated to the left (in kDa). […] Live cells were counted after trypan blue staining. Data represent mean values and standard deviations from three parallel cultures.

Compound: NS(=O)(=O)c1ccc(NC(=O)CSc2nnc(Br)n2-c2ccc(C3CC3)c3ccccc23)c(Cl)c1 [VRX-480773]
- EC50 (HIV-1IIIB): 1.6 ± 0.81 nM
- Concentration showing strong β-Gal activity enhancement [1]: ~ 250 nM
- CC50 [2]: 5820 ± 1440 nM
- CC50 on uninfected control cells relative to virus producing cells [2]: ~ 10 fold
- CC50 ([3]; 4 days, no DRV, mean ± SD, tested up to 10 μM, read-out: Cytotoxicity on MT4-LTR-EGFP-IIIB HIV-1 producing cells CC50): 680 ± 340 nM
- Cytotoxicity on MT4-LTR-EGFP-IIIB cells, in words ([3]; summary of Table 1): submicromolar range
- Live cell numbers, HIV infected MT4-LTR-EGFP-IIIB cells (MT4-LTR-EGFP-IIIB cells): significant decrease
